Results taken from a melting point compilation (Tetko et al.; mined from patent text by program, amines drawn as free bases though some values may be those of a salt).

SMILES | melting point [°C]
COc1ccc(-c2oc3ccc(F)cc3c(=O)c2OCCOc2cccc(C(C)=C3SC(=O)NC3=O)c2)cc1OC | 228 to 230
NC(=O)CC1(c2ccccc2)Oc2ccccc2O1 | 114 to 115
O=C/C=C/c1cc2ccccc2o1 | 67
COC(=O)C1=C(C)NC(C)=C(C(=O)OC)C1c1ccc(F)c(Nc2c(NCCCN3CCC(c4cccc(OC)c4)CC3)c(=O)c2=O)c1 | 205 to 207
NC(=O)c1cnn2cccc2c1NCC1CCCO1 (stereo not given) | 120
CCOCc1nc2c(N)nc3ccccc3c2n1CC1(O)CCOCC1 | 212 to 214
O=C1C(=Cc2cccs2)CCc2cc(OCCc3c[nH]cn3)ccc21 | 60 to 63
Cc1c(C)c2c(c(C)c1N)CC(C)(CN1CCN(C(=O)CCC(c3ccccc3)c3ccccc3)CC1)O2 (stereo not given) | 135 to 138
Cc1cn(C(C)(C)C(=O)Nc2ccccc2)nc1-c1ccccc1 | 116 to 119
COc1ccc(S(=O)(=O)Nc2cccnc2Nc2cccc(C)c2)cc1 | 147 to 148
O=C1Cc2cccc(C(=O)c3ccc(F)cc3)c2N1 | 185 to 187
Cc1nc(-c2cccc(CN(C(=O)Nc3ccc(Br)cc3)c3ccccc3)c2)no1 | 145 to 146
CCCc1c(C(=O)C(C)C)c2ccc(C(=O)O)cc2n1Cc1ccccc1C#N | 214 to 215
CC(=O)N1CC(CCN2CC=C(c3c[nH]c4cc(Cl)ccc34)CC2)c2ccccc21 (stereo not given) | 169 to 170
O=[N+]([O-])c1cnccc1N1CCc2ccccc21 | 159 to 160
COC1CC(C(=O)O)Cc2onc(-c3ccc(Cl)cc3)c21 (stereo not given) | 190 to 191
CCOc1nc(N)nc2c1ncn2CCC(CO)CO | 150 to 152
COCS(=O)(=O)c1ccc(C(CC2CCCC2)C(=O)O)cc1 (stereo not given) | 184 to 187
CCC1CCC2C3CC=C4CCCCC4(C)C3CCC12C (stereo not given) | 104 to 106
CC(=O)N(C)c1cc(C(=O)C=CN(C)C)ccc1F | 131 to 132
CCOC(=O)Cc1ccnc2c(N)cccc12 | 71 to 77
CN(C)Cc1nncn1-c1ccc(Br)cc1C(=O)c1ccccn1 | 145 to 146
C1=Cc2ccccc2C(N2CCNCC2)c2ccccc21 | 139 to 141
Cc1cnc2c(c1-c1ccccc1)C(=O)N(Cc1cc(C(F)(F)F)cc(C(F)(F)F)c1)CCN(C)C2=O | 203 to 205
c1ccc2c(c1)NC1CCCc3onc-2c31 (stereo not given) | 152 to 154

SMILES | melting point [°C]
CCCCCC1C=CC(c2ccc(OC)cc2)=CC1 (stereo not given) | 55
Cc1cc(C)c(-n2[nH]c(Nc3ccc(Cl)cc3)cc2=O)c(C)c1N | 236 to 237
CC(=O)OC1CSC(Oc2cccc(-c3ccc(F)cn3)c2)C(OC(C)=O)C1OC(C)=O (stereo not given) | 113
CC(=O)N1c2ccccc2N(Cc2ccccc2)C(=O)[C@H]2CCC[C@H]21 (relative stereo) | 209 to 210
O=S(=O)(c1ccc2ccccc2c1)n1ccc2ccccc21 | 103 to 105
CCC(C)(C)c1ccc(OCCCNC(=O)c2cc(OS(=O)(=O)CCCOc3ccc(N)cc3)c3ccccc3c2O)c(C(C)(C)CC)c1 | 125 to 126
CC(C)c1ccc(-c2cc(C(=O)O)c(-c3cccc(C(=O)O)c3)o2)cc1 | 236 to 239
CNc1nc(Nc2ccc(Cl)c(Cl)c2)ncc1N1CCNC1=O | 271
CCCN(CCCN1C(=O)c2ccccc2S1(=O)=O)C1CCc2cccc(OC)c2C1 (stereo not given) | 131
O=C(O)c1ccc(NCCNC(=O)C2Cc3ccccc3N2S(=O)(=O)c2ccc(-c3cc(C(F)(F)F)ccc3Cl)cc2)cc1 (stereo not given) | 130
O=C1COc2cc(SCc3ccc(Cl)cc3)ccc2N1 | 174 to 175
N#CCCCCOc1ccc(C=Cc2ccncc2)cc1 | 85 to 87
Cc1ccc(C(O)C2OC(n3cc(C)c(=O)[nH]c3=O)CC2(O)c2ccc(C)cc2)cc1 (stereo not given) | 194 to 196
CC1(CF)C=C(Br)c2cc([N+](=O)[O-])ccc2O1 (stereo not given) | 116 to 117
O=S(=O)(c1ccccc1)C(F)(F)C(O)c1ccccc1 (stereo not given) | 77 to 79
COc1ccc(-c2[nH]nc3c2C(=O)c2c(NC(N)=O)cccc2-3)cc1 | 267 to 269
CNC(=O)c1ccc(N2CCNCC2)cc1 | 154 to 156
CCCCCCCCCCCCCCCCOc1ccc(OCC(=O)O)cc1 | 125 to 127
O=C1SCC(O)=C1Cc1ccc(Br)cc1 | 201 to 202
CC(=O)Oc1ccc(NC(=O)c2ccc(C3OCC(SC(C)C(O)(Cn4cncn4)c4ccc(F)cc4F)CO3)cc2)cc1 (stereo not given) | 127
CC1(C)C=C(c2cccnc2)c2cc(Cl)c(Cl)cc2OC1 | 112
Cc1ccc(-c2ncc(OC3SCC(O)C(O)C3O)cc2F)cn1 (stereo not given) | 184
COc1ccc2c(c1)c(-c1cc3c(C#N)ccnc3[nH]1)cn2C | 304 to 305
CCOC(=O)c1cn2c(cc(OC)c3ccccc32)n1 | 175 to 176
COCc1nc2c(N)nc3c(c2n1CC(C)(C)OCCS(C)(=O)=O)CCCC3 | 195 to 197

SMILES | melting point [°C]
CC1C(=O)Oc2cc(N3CCCC3)ccc21 (stereo not given) | 101 to 103
CCCC1Nc2ccc(S(=O)(=O)N3CCCCC3)cc2S(=O)(=O)N1 (stereo not given) | 147 to 151
NS(=O)(=O)OCCOc1cccc(O)c1 | 56 to 60
Cc1noc(C)c1Cn1cc(N2C(=O)c3ccccc3C2=O)cn1 | 170 to 171
CC(C)(C)OC(=O)N1CCC(COc2ccc(N3CCCC3)cc2)CC1 | 141 to 145
COC(=O)C1=C(C)NC(C)=C(C(=O)OCC(C)=O)C1c1cccc([N+](=O)[O-])c1 (stereo not given) | 139
COC(=O)c1ccc(C2C(=O)Oc3c2cc(C(C)(C)C)cc3C(C)(C)C)cc1 (stereo not given) | 135 to 136
O=C(O)Cc1sc(NC(=O)c2cc(Br)ccc2O)nc1-c1ccccc1 | 284 to 286
CCCCC(CC)CNc1cccc(-c2ccnc3c(C(=O)c4cccs4)cnn23)c1 (stereo not given) | 134 to 138
CCCCc1nc2c(N)nc3ccccc3c2n1CCN1C(=O)NC2CSC(CCCCC(N)=O)C21 (stereo not given) | 124 to 126
COc1ccc2c(c1)c1c3c(c(-c4c(Cl)cccc4OC)cc1n2CCCO)C(=O)NC3=O | 224 to 227
CCn1nc2c(N)nc3ccccc3c2c1CC(C)(C)NCCS(C)(=O)=O | 155 to 157
CCCCCCc1cc(C(=O)O)c(N)s1 | 80 to 81
Nc1nc(Cl)c2ncn(OCCOCP(=O)(O)O)c2n1 | 190 to 195
Cn1cc(C(=O)c2ccnc(Cl)c2)cc1C(=O)c1ccc(Cl)cc1 | 182 to 184
Cc1nc2c(Cl)c(NC(=O)Cc3ccc(Cl)cc3Cl)ccc2s1 | 257 to 258
CC(=O)Nc1cc(C)c(C)nc1C | 89 to 92
N#Cc1c(Cl)ccc2[nH]c(Sc3cccc4c(=O)cc[nH]c34)nc12 | 376
Oc1cc(N=Nc2ccccn2)ccc1-c1ccc(-c2ccc(N=Nc3ccccn3)cc2O)o1 | 164 to 165
CCCCCc1c(/C=C/C(=O)O)n(C)c2cc(OC)ccc12 | 157 to 158
Cc1cc(CCCCCCCOc2ccc(C(N)=O)cc2)on1 | 153 to 154
COc1c2nc(CCl)n(C)c(=O)c2c(OC)c2nc(CCl)n(C)c(=O)c12 | 273 to 274
N#Cc1ccc2nc(N[C@@H]3CCc4ccccc43)ccc2c1 | 164
O=C(Nc1cc(S(=O)(=O)N2CCC(O)C2)sc1Cl)c1cnn2c(C(F)(F)F)cc(-c3ccc(C(F)(F)F)cc3)nc12 (racemic) | 270
Clc1nccc2scc(Br)c12 | 153 to 155

SMILES | melting point [°C]
O=C(c1ccn2c1CSC2c1cccnc1)c1cn(C(=O)NCCc2c[nH]cn2)c2cc(-c3ccc(F)cc3)ccc12 (stereo not given) | 156 to 158
CCCCCCCCCCC[C@H](CC(=O)N[C@@H](CO)C(=O)OCc1ccccc1)OC(=O)CCCCCCCCCC | 53 to 54
C=CCN(CC=C)C(=O)n1cnc(S(=O)(=O)CCC)n1 | 41 to 42
COc1ccc2oc(C(=O)C34CC5CC(CC(C5)C3)C4)cc2c1 | 113 to 115
COc1ccc(C(=O)c2c(Cl)cccc2Cl)c(C)c1 | 89
C[C@@H]1Cc2cc3c(cc2C(c2ccc(N)cc2)=NN1c1ccccc1)OCO3 | 118 to 119
Cc1nn(C)c(NCC(C)(C)C)c1NCc1ccncc1 | 88 to 90
COc1cc2c(cc1O)CCCN(Cc1cc(OC)c(OC)c(OC)c1)C2 | 46 to 48
O=P(O)(O)CN(CP(=O)(O)O)c1ccccc1 | 130 to 131
ClC[Si](c1ccc(Cl)cc1)(c1ccc(Cl)cc1)c1ccc(Cl)cc1 | 89 to 93
Clc1ccc(C2OC3(CCN(Cc4ccccc4)CC3)N3CCCCC23)cc1 (stereo not given) | 134 to 136
O=[N+]([O-])c1cc(CO)ccc1Oc1ccc(OCc2ccccc2)cc1 | 72 to 73
Cc1nc2cc(OCCO)ccc2s1 | 67 to 68
Cc1ccc(-c2ccc(C(=O)Nc3cc4ncc(CN5CCCC5)cc4cc3C)c(F)c2)cc1 | 176 to 179
OC(=S)CCCCCCn1c(-c2ccccc2)nc(-c2ccccc2)c1-c1ccccc1 | 166 to 169
O=C(N[C@H](Cc1ccc(C(F)(F)F)cc1)[C@@H](O)c1cccc2ccccc12)c1ccc(F)c2ccccc12 (racemic) | 195 to 196
COC(=NO)c1cccc2[nH]cc(C=O)c12 | 178 to 179
NC(=O)c1sc2nc(N3CCC(NCC(O)c4cccc(F)c4)CC3)cc(C(F)(F)F)c2c1N (stereo not given) | 215
Nc1cc(CO)ccc1Sc1nccnc1Cl | 148 to 150
CN1Cc2csc(=S)n2-c2ccc(F)c(F)c21 | 165 to 167
COc1cc2c(Nc3ccc(Oc4cccnc4)cc3)c(C#N)cnc2cc1F | 235 to 236
CCOC(=O)c1cc2cc(Oc3ccc(S(C)(=O)=O)nc3)cc(CC)c2[nH]1 | 140 to 141
CC1=NC(C)(C)SC1=NOC(=O)N(C)SN(C)C(=O)F | 77 to 79
COc1cc(C=C(C(C)=O)C(C)=O)cc(OC)c1OC | 83 to 86
CC(=CCO)c1ccc(C2CCCCCCC2)cc1 | 40 to 44
